In US20130289070A1, “Use of Levocabastine for Modulating Generation of Pro-Inflammatory Cytokines” (Bausch & Lomb Incorporated, priority 2007, published 2013):

System: EoL-1 (human eosinophilic leukaemia cell line) cells
Assay: TNF-α-induced cytokine release, non-differentiated EoL-1 cells (NO PMA) (Luminex)
Assay type: cell-based
Parameters: key to Fractalkine (NO PMA), p of decrement / IL-1α (NO PMA), p of decrement / IL-1β (NO PMA), p of decrement / IL-1ra (NO PMA), p of decrement / IL-5 (NO PMA), p of decrement / IL-7 (NO PMA), p of decrement / IL-8 (NO PMA), p of decrement / IP-10 (NO PMA), p of decrement / MCP-1 (NO PMA), p of decrement / MIP-1β (NO PMA), p of decrement / VEGF (NO PMA), p of decrement: ns = non significant
Experimental: EoL-1 (human eosinophilic leukaemia cell line) cells (Saito et al., 1985; Mayumi, 1992) were maintained in RPMI-1640 medium with L-glutamine supplemented with 10% (v/v) FBS at 37° C. in a humidified atmosphere with 5% CO2. Where indicated, 24 h before the experiment 25 ng/mL PMA ((phorbol 12-myristate 13-acetate, purchased from Sigma Aldrich) was added to the medium to induce eosinophil granulation and differentiation (Ohtsu et al., 1993; Zimmermann et al., 2000).
Half-million cells were aliquoted per point in a 24 well plate; each experiment was performed in triplicate and carried out in parallel with eosinophils differentiated and non differentiated with PMA (25 ng/mL, 24 h). Cells were suspended in low serum medium (RPMI-1640, 0.1% (v/v) FBS). TNF-α was used to induce cytokine secretion as previously described by Steube et al. (2000), and the net release was obtained by comparison to the basal (non-TNF-α treated). In the first experiment we evaluated the concentration and time relation between TNF-α stimulation and cytokine release. Therefore, 5, 10, and 25 ng/mL of TNF-α was administered to the cells at 0, ½, 1, 2, 3, 6, 12 and 24 h (data not shown). An aliquot of 150 μL of supernate was collected for cytokines' analysis. […] Differentiated and non-differentiated EoL-1 cells were exposed from 0.1 to 2.3 mM levocabastine ([…]Levocabastine 0.05% solution eye drops containing cyclodextrins, without benzalkonium chloride), and aliquots of the supernates were collected after 12 and 24 h. The content of cytokines at time zero was estimated by treating the cells with 400 nM calcimycin (A-23187), which is a cytolytic agent that frees all the mediators from the cytoplasmic compartment. In addition, for each experiment we tested the effect of the vehicle, which was added to the wells in a concentration equal to the maximum amount used for drug dilution.
Samples (supernates 12 and 24 h) in triplicate were analyzed using Luminex 200™ (Luminex, Austin, Tex.) and Beadview software v1.0 (Upstate Cell Signaling Solutions, Temecula, Calif.).
All data are presented as mean±SEM for the indicated number of experiments. Statistical significance was determined by Newman-Keuls test after ANOVA using GraphPad Prism (version 3.0; GraphPad Software Inc., San Diego, Calif., USA). P-values<0.05 were considered to be significant.

[1] = 24 h, Levocabastine 2 mM vs TNF-α
[2] = 24 h, TNF-α 5 ng + Levocabastine 2 mM vs TNF-α
[3] = 24 h, TNF-α 10 ng + Levocabastine 2 mM vs TNF-α
[4] = 24 h, TNF-α 20 ng + Levocabastine 2 mM vs TNF-α
[5] = 24 h, TNF-α 5, 10, 20 ng + Levocabastine 2 mM vs TNF-α
[6] = 24 h, VCAM-1 + Levocabastine 2 mM vs VCAM-1
[7] = non-differentiated EoL-1 cells, in the presence of VCAM-1 or fibronectin

## C[C@@H]1CN([C@H]2CC[C@](C#N)(c3ccc(F)cc3)CC2)CC[C@]1(C(=O)O)c1ccccc1 [Levocabastine, levocabastine]
[1]
  IL-8 (NO PMA), p of decrement: ns
  IL-10 (NO PMA), p of decrement: ns
  IL-12p40 (NO PMA), p of decrement: P < 0.01
  IP-10 (NO PMA), p of decrement: ns
  MCP-1 (NO PMA), p of decrement: Increase
  MIP-1α (NO PMA), p of decrement: Increase
  MIP-1β (NO PMA), p of decrement: ns
  RANTES (NO PMA), p of decrement: Increase
  TGF-α (NO PMA), p of decrement: ns
  VEGF (NO PMA), p of decrement: P < 0.001
[2]
  GM-CSF (NO PMA), p of decrement: ns
  IL-1ra (NO PMA), p of decrement: P < 0.01
  IL-1β (NO PMA), p of decrement: ns
  IL-5 (NO PMA), p of decrement: ns
  IL-6 (NO PMA), p of decrement: ns
  IL-7 (NO PMA), p of decrement: ns
  IL-8 (NO PMA), p of decrement: ns
  IL-10 (NO PMA), p of decrement: ns
  IL-12p40 (NO PMA), p of decrement: P < 0.001
  MCP-1 (NO PMA), p of decrement: ns
  TGF-α (NO PMA), p of decrement: P < 0.05
  VEGF (NO PMA), p of decrement: P < 0.001
[3]
  GM-CSF (NO PMA), p of decrement: ns
  IL-1ra (NO PMA), p of decrement: P < 0.05
  IL-1β (NO PMA), p of decrement: ns
  IL-5 (NO PMA), p of decrement: ns
  IL-6 (NO PMA), p of decrement: ns
  IL-7 (NO PMA), p of decrement: ns
  IL-8 (NO PMA), p of decrement: ns
  IL-10 (NO PMA), p of decrement: ns
  IL-12p40 (NO PMA), p of decrement: P < 0.001
  MCP-1 (NO PMA), p of decrement: ns
  TGF-α (NO PMA), p of decrement: ns
  VEGF (NO PMA), p of decrement: P < 0.001
[4]
  GM-CSF (NO PMA), p of decrement: ns
  IL-1ra (NO PMA), p of decrement: P < 0.01
  IL-1β (NO PMA), p of decrement: ns
  IL-5 (NO PMA), p of decrement: ns
  IL-6 (NO PMA), p of decrement: ns
  IL-7 (NO PMA), p of decrement: ns
  IL-8 (NO PMA), p of decrement: ns
  IL-10 (NO PMA), p of decrement: ns
  IL-12p40 (NO PMA), p of decrement: P < 0.001
  MCP-1 (NO PMA), p of decrement: ns
  TGF-α (NO PMA), p of decrement: P < 0.05
  VEGF (NO PMA), p of decrement: P < 0.001
[5]
  Fractalkine (NO PMA), p of decrement: increase of cytokine secretion
  G-CSF (NO PMA), p of decrement: increase of cytokine secretion
  IL-1α (NO PMA), p of decrement: increase of cytokine secretion
  IP-10 (NO PMA), p of decrement: increase of cytokine secretion
  MIP-1α (NO PMA), p of decrement: increase of cytokine secretion
  MP-1β (NO PMA), p of decrement: increase of cytokine secretion
  RANTES (NO PMA), p of decrement: increase of cytokine secretion
24 h, TNF-α vs Lev 0.1 mM
  Fractalkine (NO PMA), p of decrement: ns
  IL-1ra (NO PMA), p of decrement: ns
  IL-1α (NO PMA), p of decrement: ns
  IL-1β (NO PMA), p of decrement: ns
  IL-5 (NO PMA), p of decrement: ns
  IL-7 (NO PMA), p of decrement: ns
  IL-8 (NO PMA), p of decrement: ns
  IP-10 (NO PMA), p of decrement: p < 0.05
  MCP-1 (NO PMA), p of decrement: ns
  MIP-1β (NO PMA), p of decrement: ns
  VEGF (NO PMA), p of decrement: ns
24 h, TNF-α vs Lev 0.5 mM
  Fractalkine (NO PMA), p of decrement: ns
  IL-1ra (NO PMA), p of decrement: ns
  IL-1α (NO PMA), p of decrement: ns
  IL-1β (NO PMA), p of decrement: ns
  IL-5 (NO PMA), p of decrement: ns
  IL-7 (NO PMA), p of decrement: ns
  IL-8 (NO PMA), p of decrement: ns
  IP-10 (NO PMA), p of decrement: p < 0.05
  MCP-1 (NO PMA), p of decrement: ns
  MIP-1β (NO PMA), p of decrement: ns
  VEGF (NO PMA), p of decrement: ns
24 h, TNF-α vs Lev 1.0 mM
  Fractalkine (NO PMA), p of decrement: ns
  IL-1ra (NO PMA), p of decrement: ns
  IL-1α (NO PMA), p of decrement: ns
  IL-1β (NO PMA), p of decrement: ns
  IL-5 (NO PMA), p of decrement: ns
  IL-7 (NO PMA), p of decrement: ns
  IL-8 (NO PMA), p of decrement: ns
  IP-10 (NO PMA), p of decrement: ns
  MCP-1 (NO PMA), p of decrement: ns
  MIP-1β (NO PMA), p of decrement: ns
  VEGF (NO PMA), p of decrement: ns
24 h, TNF-α vs Lev 2.3 mM
  Fractalkine (NO PMA), p of decrement: ns
  IL-1ra (NO PMA), p of decrement: ns
  IL-1α (NO PMA), p of decrement: ns
  IL-1β (NO PMA), p of decrement: ns
  IL-5 (NO PMA), p of decrement: ns
  IL-7 (NO PMA), p of decrement: ns
  IL-8 (NO PMA), p of decrement: ns
  IP-10 (NO PMA), p of decrement: ns
  MCP-1 (NO PMA), p of decrement: ns
  MIP-1β (NO PMA), p of decrement: ns
  VEGF (NO PMA), p of decrement: p < 0.01
24 h, TNF-α vs Lev 0.1-2.3 mM
  MIP-1α (NO PMA), p of increase: concentration dependent way p < 0.001
  RANTES (NO PMA), p of increase: concentration dependent way p < 0.001
[6]
  Fractalkine (NO PMA), p of decrement: ns
  G-CSF (NO PMA), p of decrement: ns
  GM-CSF (NO PMA), p of decrement: ns
  IL-1ra (NO PMA), p of decrement: P < 0.01
  IL-1α (NO PMA), p of decrement: ns
  IL-1β (NO PMA), p of decrement: ns
  IL-5 (NO PMA), p of decrement: ns
  IL-6 (NO PMA), p of decrement: P < 0.001
  IL-7 (NO PMA), p of decrement: ns
  IL-8 (NO PMA), p of decrement: P < 0.001
  IL-10 (NO PMA), p of decrement: ns
  IL-12p40 (NO PMA), p of decrement: ns
  IP-10 (NO PMA), p of decrement: ns
  MCP-1 (NO PMA), p of decrement: ns
  MIP-1α (NO PMA), p of decrement: Increase
  MIP-1β (NO PMA), p of decrement: ns
  RANTES (NO PMA), p of decrement: Increase
  TGF-α (NO PMA), p of decrement: ns
  VEGF (NO PMA), p of decrement: P < 0.001
Naïve EoL-1 cells challenged with TNF-α, levocabastine with cyclodextrin pre-treatment
  release of VEGF (FIG. 4 Panel B): reduced release
[7]
  IL-6 release (FIG. 13): inhibited
  release, cytokine not named (FIG. 12): inhibited
